Data published in article PMC8221158, “Novel pyrrolizines bearing 3,4,5-trimethoxyphenyl moiety: design, synthesis, molecular docking, and biological evaluation as potential multi-target cytotoxic agents” (Journal of Enzyme Inhibition and Medicinal Chemistry, 2021).
Where two headings read alike, the source gives them in different places.

What was measured:
[1] = system: A2780; assay: MTT cell proliferation assay; format: cell-based, human; settings: for IC50: Homo sapiens, A2780, MTT, 72 h treatment, n = 3, read-out: IC50 (µM ± SD) A2780; for Selectivity index A2780: IC50 MRC-5 / IC50 A2780
Procedure: (§1) MCF-7 (human breast adenocarcinoma), A2780 (human ovarian cancer) and HCT116 (human colorectal carcinoma), and MRC-5 (normal foetal lung fibroblast) cell lines were bought from the ATCC and were cultured in flasks which were incubated at 37 °C in an atmosphere of 5% CO2, 95% air, and 100% relative humidity, to maintain continuous logarithmic growth. MCF-7, A2780, and HCT116 were maintained in RPMI-1640 media (100 U/mL penicillin, 100 µg/mL streptomycin, and 10% foetal bovine serum, Gibco, Carlsbad, CA). MRC-5 cells were maintained in EMEM (100 U/mL penicillin, 100 µg/mL streptomycin, and 10% foetal bovine serum, Gibco, Carlsbad, CA). Doxorubicin (5 μg/mL, for three months) added for RPMI-1640 media containing MCF7 cells was used to develop doxorubicin-resistant MCF7/ADR cells. All cancer and normal cell lines were cultured according to our previous report. Cells were used within 10–20 passages and were checked for mycoplasma every 6 months, by measuring the bioluminescence (Myco Alert sample detection kit; Lonza, Basel, Switzerland) using the multiplate reader (Synergy HT, BioTek, Winooski, VT).
(§2) The MTT assay was used to measure the cytotoxicity and growth inhibitory activities and cytotoxicity of the new compounds according to our previous report[13]^,[17]. Cells from flasks of 70–80% confluency were separately seeded in 96-well flat-bottom microculture plates (Nalgene-Nunc, Thermo Fisher Scientific, Roskilde, Denmark) at a density of 3 × 10^3 cells (MCF-7, A2780, and MRC-5), 1 × 10^4 cells (HCT116), to a volume of 180 μL/well of culture medium. A Neubauer haemocytometer was used for cell counting. Cells were incubated at 37 °C overnight to allow attachment to the wells. The final concentrations of each compound in wells were: 0–50 μM in 200 μL of media (DMSO 0.1%). Lapatinib (Cayman, Ann Arbor, MI) was used as a positive control at the same final concentrations. Medium only (20 μL) was added to each control well, and each concentration was tested in triplicates (n = 3). Following incubation for 72 h, 50 μL MTT was added into each well. Plates were incubated for 3 h, the supernatant was aspirated, and 100 μL of DMSO was added to each well. The optical density (OD) of the purple formazan is proportional to the number of viable cells. […] GraphPad Prism version 5.00 for Windows was used for analysis (La Jolla, CA). Cytotoxicity of the new compounds was calculated after treatment of cancer/normal cell lines for 72 h. The absorbance of the reduced MTT was determined using a microplate reader A570 nm.
(§3) The cytotoxic activity of the new compounds (15a–e, 16a–e, 20, and 21) was evaluated in vitro using MTT assay. The MTT assay depends on the reduction of the yellow tetrazole dye (MTT) to the purple formazan by the active mitochondrial dehydrogenase enzymes indicating the viability of the cells which can be measured as OD. The new compounds were evaluated against three non-resistant cancer cell lines: MCF-7, and A2780 cell lines were selected to compare cytotoxicity of the new compounds with the previously reported results of compounds 9a,b[13]. Cytotoxicity of the new compounds was also evaluated also against HCT116 cells which lacks COX-2 protein[33]^,[34].

[2] = system: HCT116; assay: MTT cell proliferation assay; format: cell-based, human; settings: for IC50: Homo sapiens, HCT-116, MTT, 72 h treatment, n = 3, read-out: IC50 (µM ± SD) HCT116; for Selectivity index HCT116: IC50 MRC-5 / IC50 HCT116
Procedure: as §1, §2, §3

[3] = system: MCF-7; assay: MTT cell proliferation assay; format: cell-based, human; settings: for IC50: Homo sapiens, MCF7, MTT, 72 h treatment, n = 3, read-out: IC50 (µM ± SD) MCF-7; for Selectivity index MCF-7: IC50 MRC-5 / IC50 MCF-7
Procedure: as §1, §2, §3

[4] = system: MCF-7, HCT116, and A2780 cancer cell lines; assay: MTT assay, three cancer cell lines taken together (average, overall range); format: cell-based, human; settings: for IC50: Homo sapiens
Procedure: Cells from flasks of 70–80% confluency were separately seeded in 96-well flat-bottom microculture plates (Nalgene-Nunc, Thermo Fisher Scientific, Roskilde, Denmark) at a density of 3 × 10^3 cells (MCF-7, A2780, and MRC-5), 1 × 10^4 cells (HCT116), to a volume of 180 μL/well of culture medium. […] The final concentrations of each compound in wells were: 0–50 μM in 200 μL of media (DMSO 0.1%). Lapatinib (Cayman, Ann Arbor, MI) was used as a positive control at the same final concentrations. Medium only (20 μL) was added to each control well, and each concentration was tested in triplicates (n = 3). Following incubation for 72 h, 50 μL MTT was added into each well. Plates were incubated for 3 h, the supernatant was aspirated, and 100 μL of DMSO was added to each well. The optical density (OD) of the purple formazan is proportional to the number of viable cells. […] The absorbance of the reduced MTT was determined using a microplate reader A570 nm.

[5] = system: normal MRC-5 cells; assay: MTT assay, normal cells (cytotoxic selectivity); format: cell-based; settings: Homo sapiens, MRC5, 72 h treatment, n = 3, read-out: IC50 (µM ± SD) MRC-5
Procedure: as §1, §2
Selectivity towards cancerous cells is one of the important issues which must be considered during the discovery and development of new anticancer agents. To assess the toxicity and selectivity of the new compounds (15a–e, 16a–e, 20, and 21), their growth inhibitory activities against normal human foetal lung fibroblast MRC-5 cells were evaluated using the MTT assay. […] The selectivity of the new compounds towards each of the three cancer cell lines was calculated by dividing their IC50 values against normal MRC-5 cells by their IC50 values against the corresponding cancer cell line (Table 3).

[6] = target: T1, porcine tubulin (Sus scrofa, UniProt P02550+P02554); assay: Tubulin polymerisation fluorescence-based assay; format: biochemical; settings: 0.5 μM, positive control (inhibitor)
T1 construct: purchased Cytoskeleton Inc., Denver, CO BK011P
Procedure: The effect of compounds 16a,b,d on tubulin polymerisation was measured in vitro using tubulin polymerisation fluorescence-based assay (cytoskeleton, cat. BK011P, https://www.cytoskeleton.com/bk011p). The assay was performed following the previous report[22] and according to the manufacturer’s instructions. Briefly, 2 mg/mL porcine tubulin was dissolved in buffer 1 (80 mM PIPES, 2 mM MgCl2, 0.5 mM EGTA pH 6.9, 10 µM fluorescent reporter, 1 mM GTP, 15% glycerol) to a final concentration of […]. Then tubulin solution was transferred to a pre-warmed 96-well plate that contained the test compounds 16a,b,d (5 μM), paclitaxel (3 μM), CaCl2 (0.5 μM), and control buffer. The polymerisation of tubulin was monitored as fluorescence at 37 °C for 60 min. Relative fluorescence units (RFU) were determined at 360 nm for excitation and at 460 nm for emission using the Varioskan Flash spectral scanning multimode reader (Thermo Fisher Scientific, Roskilde, Denmark) at a reading speed of 1 cycle/min.
In the current study, the new compounds were designed bearing the trimethoxy phenyl moiety aiming to obtain new cytotoxic agents that can interfere with tubulin polymerisation in cancer cells. […] In this assay, light scattering by microtubules which is directly proportional to the concentration of the microtubule polymer was used as a measure of tubulin polymerisation. The study was performed using a fluorescence-based tubulin polymerisation assay kit (Cytoskeleton Inc., Denver, CO; Cat # BK011P) following the manufacturer’s instructions (https://www.cytoskeleton.com/bk011p) and according to the previous report.
Paclitaxel (3 μM) was used as a tubulin polymerisation enhancer (positive control, enhancer), while calcium chloride (CaCl2, 0.5 μM) was used as a positive control (inhibitor) as per the manufacturer’s instructions (https://www.cytoskeleton.com/pdf-storage/datasheets/bk011p.pdf). The vehicle was also used to evaluate the polymerisation when tubulin is incubated in the absence of the test compound. The effect of the selected compounds (5 μM) on tubulin polymerisation was evaluated and compared with those of the positive control. The results are represented in Figure 8.

[7] = MCF-7, HCT116, A2780, read-out: Average of the three IC50 values against the three cancer cell lines

T1 sequence (P02550 whole entry): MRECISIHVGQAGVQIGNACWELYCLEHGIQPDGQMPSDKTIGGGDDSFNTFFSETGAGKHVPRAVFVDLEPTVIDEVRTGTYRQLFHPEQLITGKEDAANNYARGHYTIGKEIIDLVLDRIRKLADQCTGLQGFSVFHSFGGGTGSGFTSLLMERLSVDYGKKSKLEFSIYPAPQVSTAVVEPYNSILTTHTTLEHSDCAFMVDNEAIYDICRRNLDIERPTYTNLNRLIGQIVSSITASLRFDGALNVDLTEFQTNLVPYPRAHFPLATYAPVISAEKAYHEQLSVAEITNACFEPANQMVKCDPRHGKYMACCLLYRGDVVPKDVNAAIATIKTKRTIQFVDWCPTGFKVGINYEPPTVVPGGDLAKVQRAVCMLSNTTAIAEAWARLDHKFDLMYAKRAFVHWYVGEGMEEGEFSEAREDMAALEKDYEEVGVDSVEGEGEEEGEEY
T1 sequence (P02554 whole entry): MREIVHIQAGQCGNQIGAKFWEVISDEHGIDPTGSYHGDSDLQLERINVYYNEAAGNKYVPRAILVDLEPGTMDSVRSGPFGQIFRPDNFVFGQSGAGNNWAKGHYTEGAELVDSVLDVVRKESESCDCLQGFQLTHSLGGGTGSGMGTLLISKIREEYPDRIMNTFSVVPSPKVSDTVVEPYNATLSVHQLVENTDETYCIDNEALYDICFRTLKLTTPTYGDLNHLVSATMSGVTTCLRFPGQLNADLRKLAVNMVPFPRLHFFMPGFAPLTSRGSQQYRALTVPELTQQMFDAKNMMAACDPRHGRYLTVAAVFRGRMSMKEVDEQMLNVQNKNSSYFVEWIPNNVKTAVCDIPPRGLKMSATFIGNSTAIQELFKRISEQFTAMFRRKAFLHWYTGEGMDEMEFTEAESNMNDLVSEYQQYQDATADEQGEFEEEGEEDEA

| SMILES | IC50 [1] [µM] | Selectivity index A2780 [1] | IC50 [2] [µM] | Selectivity index HCT116 [2] | IC50 [3] [µM] | Selectivity index MCF-7 [3] | IC50 [4, 7] [nM] | IC50 [5] [µM] | melting point [°C] | effect on tubulin polymerisation [6] | fold increase in cytotoxicity against the three cancer cell lines ([4]; relative to compound 15a (ring expansion)) | IC50 ([4]; MTT, 72 h, range over MCF-7, HCT116, A2780, read-out: IC50 against the three cancer cell lines) [nM] |
| --- | --- | --- | --- | --- | --- | --- | --- | --- | --- | --- | --- | --- |
| COc1ccc(NC(=O)c2c(NC(=O)c3cc(OC)c(OC)c(OC)c3)c(C#N)c3n2CCC3)cc1 [16c, 7-Cyano-N-(4-methoxyphenyl)-6-(3,4,5-trimethoxybenzamido)-2,3-dihydro-1H-pyrrolizine-5-carboxamide] | 0.144 ± 0.012 | 4.62 | 0.032 ± 0.014 | 20.78 | 1.47 ± 0.452 | 0.45 | 549 | 0.665 ± 0.191 | 259 to 261 | – | – | – |
| [Ca+2].[Cl-].[Cl-] [CaCl2, calcium chloride, reference compound] | – | – | – | – | – | – | – | – | – | inhibited tubulin polymerisation and reduced the final polymer mass | – | – |
| COc1cc(C=Nc2c(C#N)c3n(c2C(=O)Nc2ccccc2)CCCC3)cc(OC)c1OC [compound 20, 1-Cyano-N-phenyl-2-((3,4,5-trimethoxybenzylidene)amino)-5,6,7,8-tetrahydroindolizine-3-carboxamide] | 0.938 ± 0.116 | 1.62 | 0.247 ± 0.069 | 6.14 | 5.72 ± 0.185 | 0.27 | 2300 | 1.52 ± 0.103 | 247 to 249 | – | 1.4–27.5 fold | – |
| COc1cc(C=Nc2c(C#N)c3n(c2C(=O)Nc2ccc(Cl)cc2)CCC3)cc(OC)c1OC [15d, N-(4-Chlorophenyl)-7-cyano-6-((3,4,5-trimethoxybenzylidene)amino)-2,3-dihydro-1H-pyrrolizine-5-carboxamide] | 0.07 ± 0.002 | 29.61 | 0.534 ± 0.204 | 3.88 | 21.8 ± 3.18 | 0.10 | 7450 | 2.07 ± 0.054 | 271 to 273 | – | – | – |
| COc1cc(C=Nc2c(C#N)c3n(c2C(=O)Nc2ccc(C)cc2)CCC3)cc(OC)c1OC [15b, 7-Cyano-N-(p-tolyl)-6-((3,4,5-trimethoxybenzylidene)amino) -2,3-dihydro-1H-pyrrolizine-5-carboxamide] | 33.4 ± 3.73 | 0.10 | 19.8 ± 7.76 | 0.17 | 35.9 ± 4.44 | 0.09 | 29700 | 3.33 ± 1 | 251 to 253 | – | – | – |
| COc1cc(C=Nc2c(C#N)c3n(c2C(=O)Nc2ccccc2)CCC3)cc(OC)c1OC [15a, 7-Cyano-N-phenyl-6-((3,4,5-trimethoxybenzylidene)amino)-2,3-dihydro-1H-pyrrolizine-5-carboxamide] | 25.8 ± 4.99 | 0.07 | 0.353 ± 0.088 | 4.92 | 36.9 ± 4.4 | 0.05 | 21000 | 1.74 ± 0.149 | 242 to 244 | – | – | – |
| COc1cc(C=Nc2c(C#N)c3n(c2C(=O)Nc2ccc(Br)cc2)CCC3)cc(OC)c1OC [15e, N-(4-Bromophenyl)-7-cyano-6-((3,4,5-trimethoxybenzylidene)amino)-2,3-dihydro-1H-pyrrolizine-5-carboxamide] | 0.311 ± 0.041 | 54.92 | 0.144 ± 0.049 | 118.61 | 0.187 ± 0.098 | 91.24 | 214 | 17.1 ± 0.552 | 277 to 280 | – | – | – |
| COc1ccc(NC(=O)c2c(N=Cc3cc(OC)c(OC)c(OC)c3)c(C#N)c3n2CCC3)cc1 [15c, 7-Cyano-N-(4-methoxyphenyl)-6-((3,4,5-trimethoxybenzylidene)amino)-2,3-dihydro-1H-pyrrolizine-5-carboxamide] | 0.041 ± 0.008 | 48.27 | 0.096 ± 0.015 | 20.47 | 0.616 ± 0.01 | 3.21 | 251 | 1.98 ± 0.561 | 263 to 265 | – | – | – |
| CS(=O)(=O)CCNCc1ccc(-c2ccc3ncnc(Nc4ccc(OCc5cccc(F)c5)c(Cl)c4)c3c2)o1 [Lapatinib, reference compound] | 9.72 ± 0.845 | 1.40 | 10 ± 1.13 | 1.36 | 6.69 ± 1.09 | 2.04 | 8830 | 13.7 ± 2.9 | – | – | – | 6690 to 10000 |
| COc1cc(C(=O)Nc2c(C#N)c3n(c2C(=O)Nc2ccccc2)CCCC3)cc(OC)c1OC [compound 21, 1-Cyano-N-phenyl-2-(3,4,5-trimethoxybenzamido)-5,6,7,8-tetrahydroindolizine-3-carboxamide] | 0.598 ± 0.039 | – | 0.176 ± 0.017 | – | 0.6 ± 0.054 | – | 458 | 0.584 ± 0.094 | – | – | – | – |
| COc1cc(C(=O)Nc2c(C#N)c3n(c2C(=O)Nc2ccc(Br)cc2)CCC3)cc(OC)c1OC [16e, N-(4-Bromophenyl)-7-cyano-6-(3,4,5-trimethoxybenzamido) -2,3-dihydro-1H-pyrrolizine-5-carboxamide] | 0.914 ± 0.092 | 5.75 | 0.173 ± 0.039 | 30.40 | 0.361 ± 0.039 | 14.57 | 483 | 5.26 ± 1.4 | 286 to 288 | – | – | – |
